In patent US11312727B1, “Macrocyclic flu endonuclease inhibitors” (Janssen BioPharma, Inc., priority 2018, dated 2022):

Legend:
[1] = system: Influenza strain A549 A/WSN/33 (H1N1); assay: microbe, parasite or virus in culture; assay type: cell-based; conditions: Influenza A virus, A549, 20 h, A549 cells, influenza A/WSN/33 (H1N1), 20 hours incubation; read-out: A549_A(H1N1) EC50
[2] = in vitro; conditions: human, CC50, uninfected A549 cells, CellTiter-Glo

| SMILES | EC50 [1] | CC50 [2] |
| --- | --- | --- |
| CC[C@H]1/C=C/COc2ccccc2[C@@H](c2ccccc2)N2CN1C(=O)c1c(O)c(=O)ccn12 [Compound 39BB, (9S,18R,E)-9-ethyl-12-hydroxy-18-phenyl-6,9-dihydro-18H-10,17-methanobenzo[b]pyrido[1,2-f][1]oxa[5,6,9]triazacyclotridecine-11,13-dione] | 7 nM | > 2000 nM |
| O=C1c2c(O)c(=O)ccn2N2CN1C/C=C/CCc1ccccc1[C@H]2c1ccccn1 [Compound 43A, (17S,E)-4-hydroxy-16-(pyridin-2-yl)-7,10,11,16-tetrahydro-6,17-methanobenzo[k]pyrido[1,2-b][1,2,5]triazacyclotridecine-3,5-dione] | 22 nM | > 2000 nM |
| O=C1c2c(O)c(=O)ccn2N2CN1C/C=C/CCc1ccccc1[C@@H]2c1ccccn1 [Compound 43B, (17R,E)-4-hydroxy-16-(pyridin-2-yl)-7,10,11,16-tetrahydro-6,17-methanobenzo[k]pyrido[1,2-b][1,2,5]triazacyclotridecine-3,5-dione] | > 1000 nM | > 2000 nM |
| O=C1c2c(O)c(=O)ccn2N2CN1C/C=C\COc1cccc3c1[C@@H]2c1ccccc1SC3 [Compound 46A, (21R,Z)-16-hydroxy-6,10,13,21a-tetrahydro-7,8-(epiprop[1]en[1]yl[3]ylidene)-14,21-methanobenzo[6,7]thiepino[4,5-c]pyrido[1,2-f][1]oxa[5,6,9]triazacyclotridecine-15,17-dione] | 64 nM | > 2000 nM |
| O=C1c2c(O)c(=O)ccn2N2CN1C/C=C\COc1cccc3c1[C@H]2c1ccccc1SC3 [Compound 46B, (21S,Z)-16-hydroxy-6,10,13,21a-tetrahydro-7,8-(epiprop[1]en[1]yl[3]ylidene)-14,21-methanobenzo[6,7]thiepino[4,5-c]pyrido[1,2-f][1]oxa[5,6,9]triazacyclotridecine-15,17-dione] | 3 nM | > 100 nM |
| O=C1c2c(O)c(=O)ccn2N2CN1C/C=C/COc1cccc3c1[C@@H]2c1ccccc1SC3 [Compound 46C, (17R,E)-12-hydroxy-2,6,9,17a-tetrahydro-3,4-(epiprop[1]en[1]yl[3]ylidene)-10,17-methanobenzo[6,7]thiepino[4,5-c]pyrido[1,2-f][1]oxa[5,6,9]triazacyclotridecine-11,13-dione] | 330 nM | > 2000 nM |
| O=C1c2c(O)c(=O)ccn2N2CN1C/C=C/COc1cccc3c1[C@H]2c1ccccc1SC3 [Compound 46D, (17S,E)-12-hydroxy-2,6,9,17a-tetrahydro-3,4-(epiprop[1]en[1]yl[3]ylidene)-10,17-methanobenzo[6,7]thiepino[4,5-c]pyrido[1,2-f][1]oxa[5,6,9]triazacyclotridecine-11,13-dione] | 1 nM | > 200 nM |
| O=C1c2c(O)c(=O)ccn2N2CN1CCCCCOc1cccc3c1C2c1ccccc1SC3 (centres unmarked) [Compound 48] | 32 nM | > 2000 nM |
| CN1Cc2ccccc2C(c2ccccc2)N2CN(CCC1=O)C(=O)c1c(O)c(=O)ccn12 (centres unmarked) [Compound 50, 12-hydroxy-6-methyl-18-phenyl-5,8,9,18-tetrahydro-10,17-methanobenzo[k]pyrido[1,2-b][1,2,5,9]tetraazacyclotridecine-7,11,13(6H)-trione] | > 1000 nM | > 2000 nM |
| O=C1c2c(O)c(=O)ccn2N2CN1CC/C=C\c1ccccc1C2c1ccccc1 (centres unmarked) [Compound 54, (*Z)-4-hydroxy-15-phenyl-8,15-dihydro-7H-6,16-methanobenzo[j]pyrido[1,2-b][1,2,5]triazacyclododecine-3,5-dione] | 117 nM | > 20000 nM |
| O=C1c2c(O)c(=O)ccn2N2CN1CCCCCCOc1ccccc1C2c1ccccc1 (centres unmarked) [Compound 55, 15-hydroxy-2-phenyl-12,13,14,16-tetrahydro-11H-4-oxa-1(1,3)-pyrido[2,1-f][1,2,4]triazina-3(1,2)-benzenacyclodecaphane-14,16-dione] | 880 nM | > 2000 nM |
| O=C1c2c(O)c(=O)ccn2N2CN1C/C=C\CCCOc1ccccc1C2c1ccccc1 (centres unmarked) [Compound 60, (*Z)-15-hydroxy-2-phenyl-12,13,14,16-tetrahydro-11H-4-oxa-1(1,3)-pyrido[2,1-f][1,2,4]triazina-3(1,2)-benzenacyclodecaphan-8-ene-14,16-dione] | > 1000 nM | > 2000 nM |
| O=C1c2c(O)c(=O)ccn2N2CN1CC/C=C\c1cccc3c1C2c1ccccc1CC3 (centres unmarked) [Compound 73, (11*Z)-6-hydroxy-10,16,17,21b-tetrahydro-9H-1,8-methanobenzo[4,5]cyclohepta[1,2,3-op]pyrido[1,2-c][2,3,6]benzotriazacyclododecine-5,7-dione] | 16 nM | > 2000 nM |
| O=C1c2c(O)c(=O)ccn2N2CN1C1(/C=C/COc3ccccc3[C@@H]2c2ccccc2)CC1 [Compound 79A, (18'S,E)-12′-hydroxy-18′-phenyl-6′H,18′H-spiro[cyclopropane-1,9′-[10,17]methanobenzo[b]pyrido[1,2-f][1]oxa[5,6,9]triazacyclotridecine]-11′,13′-dione] | > 500 nM | > 1000 nM |
| O=C1c2c(O)c(=O)ccn2N2CN1C1(/C=C/COc3ccccc3[C@H]2c2ccccc2)CC1 [Compound 79B, (18′R,E)-12′-hydroxy-18′-phenyl-6′H,18′H-spiro[cyclopropane-1,9′-[10,17]methanobenzo[b]pyrido[1,2-f][1]oxa[5,6,9]triazacyclotridecine]-11′,13′-dione] | 6 nM | > 1000 nM |
| O=C1c2c(O)c(=O)ccn2N2CN1C/C=C/COc1cccc3c1[C@H]2c1ccccc1S(=O)(=O)C3 [Compound 82, (17aS,E)-12-hydroxy-2,6,9,17a-tetrahydro-3,4-(epiprop[1]en[1]yl[3]ylidene)-10,17-methanobenzo[6,7]thiepino[4,5-c]pyrido[1,2-f][1]oxa[5,6,9]triazacyclotridecine-11,13-dione 1,1-dioxide] | 71 nM | > 1000 nM |
| O=C1c2c(O)c(=O)ccn2N2CN1C[C@H]1C[C@@H]1COc1cccc3c1[C@H]2c1ccccc1SC3 [Compound 87BA, (1aS,11bS,20aS)-17-hydroxy-1a,2,6,11b,20,20a-hexahydro-1H-5,4-(epiprop[1]en[1]yl[3]ylidene)-12,19-methanobenzo[6,7]thiepino[4,5-c]cyclopropa[k]pyrido[1,2-f][1]oxa[5,6,9]triazacyclotridecine-16,18-dione] | 4 nM | > 200 nM |
| O=C1c2c(O)c(=O)ccn2N2CN1C[C@@H]1C[C@H]1COc1cccc3c1[C@H]2c1ccccc1SC3 [Compound 87BB, (1aR,11bS,20aR)-17-hydroxy-1a,2,6,11b,20,20a-hexahydro-1H-5,4-(epiprop[1]en[1]yl[3]ylidene)-12,19-methanobenzo[6,7]thiepino[4,5-c]cyclopropa[k]pyrido[1,2-f][1]oxa[5,6,9]triazacyclotridecine-16,18-dione] | 4 nM | > 200 nM |
| CC[C@H]1/C=C\COc2cccc3c2[C@H](c2ccccc2SC3)N2CN1C(=O)c1c(O)c(=O)ccn12 [Compound 92AA, (13S,21aR,Z)-13-ethyl-16-hydroxy-6,10,13,21a-tetrahydro-7,8-(epiprop[1]en[1]yl[3]ylidene)-14,21-methanobenzo[6,7]thiepino[4,5-c]pyrido[1,2-f][1]oxa[5,6,9]triazacyclotridecine-15,17-dione] | 108 nM | > 1000 nM |
